US6562808B1, “5,11-dihydrodibenzo[b,e][1,4]oxazepine derivatives and pharmaceutical composition containing the same” (Ajinomoto Co., Inc., priority 1997, dated 2003)

Key:
[1] = target: calcium channel (blood vessel, thoracic aortae) (Rattus norvegicus, UniProt P22002); assay: In vitro calcium channel-antagonistic effect (blood vessel): inhibition of high potassium contraction of thoracic aorta spiral samples; type: cell-based, rat (male Crj:CD); conditions: 30 minute pretreatment; for inhibition at 0.1 µM: high potassium (45.0 mM KCl) contraction, 10^−7 M test compound, read-out: Inhibition rate (%) (conc.: 10^−7M)
Description: In Vitro Calcium Channel-antagonistic Effect (Blood Vessel):
The thoracic aortae were taken out of male Crj:CD rats (8-12 weeks old) and spiral samples were prepared from them. The blood vessel samples were suspended in Tyrode's solution in which a mixed gas (95% of oxygen and 5% of carbon dioxide) was introduced at 37° C. As for the change in tension of each blood vessel, the isometry was recorded on an ink writing recorder through a transducer. The high potassium contraction was caused by changing the nutritive solution from the Tyrode's solution to a potassium-Tyrode's solution (94.6 mM of NaCl, 45.0 mM of KCl, 1.8 mM of CaCl2, 1.04 mM of MgCl2, 0.4 mM of NaH2PO4, 11.9 mM of NaHCO3, and 5.55 mM of glucose). The high potassium contraction-inhibiting effect of the test compound was determined by 30 minute pretreatment. Compound A described in European Patent No. 0404359A1 was used as a comparative substance. The results of the determination of the calcium channel antagonistic activity were given in terms of the rate of inhibition of the high calcium contraction with 10^−7 M of the test compound. In Table 1, “−” means not determined.

[2] = Determination of solubility in neutral buffer solution; type: physicochemical; conditions: aqueous buffer, thermodynamic from solid; 0.15 M phosphate buffer pH 7.2, room temperature, left overnight, supernatant by HPLC
Description: Determination of Solubility:
A test compound was suspended in 0.15 M phosphate buffer solution having pH of 7.2 at room temperature. The obtained suspension was vigorously shaken and then left to stand overnight. The insoluble compound was removed by centrifugation, and the concentration of the compound in the supernatant was determined by the high-performance liquid chromatography.

calcium channel (ileum) = calcium channel (ileum) (Rattus norvegicus, UniProt P22002); assay: In vitro calcium channel-antagonistic effect (ileum): inhibition of high potassium contraction of ileum samples; type: cell-based, rat (male Crj:CD); conditions: 30 minute pretreatment; for inhibition at 0.1 µM: high potassium (45.0 mM KCl) contraction, 10^−7 M test compound, read-out: Inhibition rate (%) (conc.: 10^−7M)
Description: In Vitro Calcium Channel-antagonistic Effect (Ileum):
The ileum was taken out of male Crj:CD rats (8-12 weeks old) at a position of 3 cm distant from the ileocecal region. The ileum samples were suspended in Tyrode's solution in which a mixed gas (95% of oxygen and 5% of carbon dioxide) was introduced at 37° C. As for the change in tension of the ileum, the isometry was recorded on a ink writing recorder through a transducer. The high potassium contraction was caused by changing the nutritive solution from the Tyrode's solution to a potassium-Tyrode's solution (94.6 mM of NaCl, 45.0 mM of KCl, 1.8 mM of CaCl2, 1.04 mM of MgCl2, 0.4 mM of NaH2PO4, 11.9 mM of NaHCO3, and 5.55 mM of glucose). The high potassium contraction-inhibiting effect of the test compound was determined by 30 minute pretreatment. Compound A described in European Patent No. 0404359A1 was used as a comparative substance. The results of the determination of the calcium channel antagonistic activity were given in terms of the rate of inhibition of the high calcium contraction with 10^−7 M of the test compound. In Table 2, “−” means not determined.

Sequence of calcium channel (ileum) (P22002 whole entry): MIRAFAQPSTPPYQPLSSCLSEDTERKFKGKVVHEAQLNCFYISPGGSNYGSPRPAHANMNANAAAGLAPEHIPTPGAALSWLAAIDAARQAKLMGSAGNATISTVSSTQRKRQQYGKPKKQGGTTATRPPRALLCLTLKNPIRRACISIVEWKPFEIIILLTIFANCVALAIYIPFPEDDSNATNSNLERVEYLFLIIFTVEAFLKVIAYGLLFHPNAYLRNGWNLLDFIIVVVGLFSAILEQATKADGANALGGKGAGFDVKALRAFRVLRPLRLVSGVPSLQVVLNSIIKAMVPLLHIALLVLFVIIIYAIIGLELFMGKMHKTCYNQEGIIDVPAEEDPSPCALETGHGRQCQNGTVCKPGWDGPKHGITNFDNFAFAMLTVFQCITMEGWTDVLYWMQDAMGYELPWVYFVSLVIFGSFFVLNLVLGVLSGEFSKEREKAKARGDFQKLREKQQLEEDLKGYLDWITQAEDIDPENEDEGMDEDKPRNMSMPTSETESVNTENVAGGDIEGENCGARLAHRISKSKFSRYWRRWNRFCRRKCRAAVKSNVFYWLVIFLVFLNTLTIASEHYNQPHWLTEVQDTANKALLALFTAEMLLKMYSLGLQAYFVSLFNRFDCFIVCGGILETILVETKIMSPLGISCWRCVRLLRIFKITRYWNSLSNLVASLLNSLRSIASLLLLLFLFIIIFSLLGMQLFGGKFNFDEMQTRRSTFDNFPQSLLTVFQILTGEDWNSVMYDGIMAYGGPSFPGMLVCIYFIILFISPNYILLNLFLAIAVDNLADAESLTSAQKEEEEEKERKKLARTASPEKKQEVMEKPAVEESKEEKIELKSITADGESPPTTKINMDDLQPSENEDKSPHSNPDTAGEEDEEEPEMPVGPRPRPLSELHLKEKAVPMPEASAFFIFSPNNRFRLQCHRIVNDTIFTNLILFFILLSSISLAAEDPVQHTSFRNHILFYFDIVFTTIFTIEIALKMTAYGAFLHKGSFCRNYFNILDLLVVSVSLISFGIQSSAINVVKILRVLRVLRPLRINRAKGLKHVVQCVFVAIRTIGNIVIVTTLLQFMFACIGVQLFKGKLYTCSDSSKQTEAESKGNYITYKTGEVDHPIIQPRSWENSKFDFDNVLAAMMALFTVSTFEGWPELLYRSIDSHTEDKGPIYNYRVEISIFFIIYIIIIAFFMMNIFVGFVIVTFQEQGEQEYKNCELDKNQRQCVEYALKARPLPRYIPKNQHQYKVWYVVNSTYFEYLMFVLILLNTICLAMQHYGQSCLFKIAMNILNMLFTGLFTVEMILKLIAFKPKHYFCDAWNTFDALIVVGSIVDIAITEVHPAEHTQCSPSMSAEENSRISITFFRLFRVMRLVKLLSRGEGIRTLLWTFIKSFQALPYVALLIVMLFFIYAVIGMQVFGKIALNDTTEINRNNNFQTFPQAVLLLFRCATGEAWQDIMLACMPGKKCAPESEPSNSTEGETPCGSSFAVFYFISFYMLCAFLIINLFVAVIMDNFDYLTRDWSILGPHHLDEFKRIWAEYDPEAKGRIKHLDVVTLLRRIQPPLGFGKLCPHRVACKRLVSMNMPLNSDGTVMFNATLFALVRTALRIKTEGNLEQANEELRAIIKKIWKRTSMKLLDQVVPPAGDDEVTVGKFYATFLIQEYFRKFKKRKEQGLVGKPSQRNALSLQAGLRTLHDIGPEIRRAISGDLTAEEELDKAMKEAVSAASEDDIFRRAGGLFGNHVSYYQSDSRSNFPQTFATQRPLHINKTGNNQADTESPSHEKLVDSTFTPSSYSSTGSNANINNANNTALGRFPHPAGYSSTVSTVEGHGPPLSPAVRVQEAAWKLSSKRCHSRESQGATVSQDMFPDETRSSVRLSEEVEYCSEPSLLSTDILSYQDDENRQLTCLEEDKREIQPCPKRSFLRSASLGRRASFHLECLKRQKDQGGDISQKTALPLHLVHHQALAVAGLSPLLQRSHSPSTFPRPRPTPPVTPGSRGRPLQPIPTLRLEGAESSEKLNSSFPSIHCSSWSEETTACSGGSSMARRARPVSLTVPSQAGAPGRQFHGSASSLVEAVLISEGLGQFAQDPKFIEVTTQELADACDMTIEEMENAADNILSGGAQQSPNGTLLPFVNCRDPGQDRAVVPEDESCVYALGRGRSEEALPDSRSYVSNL
Sequence of calcium channel (blood vessel, thoracic aortae) (P22002 whole entry): as above

SMILES	inhibition at 0.1 µM [1] [%]	melting point [°C]	solubility [2] [µg/mL]	inhibition at 0.1 µM (calcium channel (ileum)) [%]	IC50 ([1]; high potassium contraction, read-out: IC50 (nM), concentration for 50% contraction inhibition) [nM]	IC50 (calcium channel (ileum); high potassium contraction, read-out: IC50(nM), concentration for 50% contraction inhibition) [nM]
CCN(CC)c1ccc(CCN2CCC[C@@H]2CN2c3ccccc3COc3ccccc32)cc1.Cl.Cl [Example 6, (R)-5,11-Dihydro-5-[1-[2-(4-diethylaminophenyl)ethyl]-2-pyrrolidinylmethyl]dibenzo[b,e][1,4]oxazepine Dihydrochloride]	24	143 to 146	638	51	–	–
Cl.Cl.Nc1ccc(CCN2CCC[C@@H]2CN2c3ccccc3COc3ccccc32)cc1	–	176 to 180	–	–	–	–
CN(C)c1ccc(CCN2CCC[C@@H]2CN2c3ccccc3COc3ccccc32)cc1.Cl.Cl [Example 2, (R)-5,11-Dihydro-5-[1-[2-(4-dimethylaminophenyl)ethyl]-2-pyrrolidinylmethyl]dibenzo[b,e][1,4]oxazepine Dihydrochloride]	12	164 to 169	36	62	–	–
CN(C)c1cccc(CCN2CCC[C@@H]2CN2c3ccccc3COc3ccccc32)c1.Cl.Cl [Example 19, (R)-5,11-Dihydro-5-[1-[2-(3-dimethylaminophenyl)ethyl]2-pyrrolidinylmethyl)dibenzo[b,e][1,4]oxazepine Dihydrochloride]	–	170 to 172	–	–	–	–
Cl.O[C@@H](CCN1CCC[C@@H]1CN1c2ccccc2COc2ccccc21)c1ccccc1	–	149 to 150	–	–	–	–
CN(C)c1cccc(CCCN2CCC[C@@H]2CN2c3ccccc3COc3ccccc32)c1.Cl.Cl [Example 38, (R)-5,11-Dihydro-5-[1-[3-(3-dimethylaminophenyl)propane-1-yl]-2-pyrrolidinylmethyl]dibenzo[b,e][1,4]oxazepine Dihydrochloride]	25	120 to 123	41	52	–	–
Cl.Cl.Nc1ccccc1CCN1CCC[C@@H]1CN1c2ccccc2COc2ccccc21	–	168 to 172	–	–	–	–
CNc1ccc(CCN2CCC[C@@H]2CN2c3ccccc3COc3ccccc32)cc1.Cl.Cl [Example 8, (R)-5,11-Dihydro-5-[1-[2-(4-methylaminophenyl)ethyl]-2-pyrrolidinylmethyl]dibenzo[b,e][1,4]oxazepine Dihydrochloride]	–	134 to 137	116	–	–	–
Cl.Cl.Nc1cccc(CCN2CCC[C@@H]2CN2c3ccccc3COc3ccccc32)c1 [Example 13, (R)-5,11-Dihydro-5-[1-[2-(3-aminophenyl)ethyl]-2-pyrrolidinylmethyl]dibenzo[b,e][1,4]oxazepine Dihydrochloride]	–	149 to 152	418	–	–	–
COc1ccc(CCN2CCC[C@@H]2CN2c3ccccc3COc3ccccc32)cc1N(C)C.Cl.Cl	–	141 to 144	–	–	–	–
COc1ccc(CCCN2CCC[C@@H]2CN2c3ccccc3COc3ccccc32)cc1.Cl [Example 24, (R)-5,11-Dihydro-5-[1-[3-(4-methoxyphenyl)propane-1-yl]-2-pyrrolidinylmethyl]dibenzo[b,e][1,4]oxazepine Hydrochloride]	31	172 to 174	49	67	–	–
COc1ccc(CCN2CCCC2CN2c3ccccc3CSc3ccccc32)cc1.O=C(O)/C=C\C(=O)O (stereo not drawn) [Compound A, reference compound]	–	–	13	–	530	120
Cl.O[C@H](CCN1CCC[C@@H]1CN1c2ccccc2COc2ccccc21)c1ccccc1	–	179 to 182	–	–	–	–
COc1ccc(C=CCN2CCC[C@@H]2CN2c3ccccc3COc3ccccc32)cc1.Cl	–	120 to 122	–	–	–	–
CNc1cccc(CCN2CCC[C@@H]2CN2c3ccccc3COc3ccccc32)c1.Cl.Cl [Example 14, (R)-5,11-Dihydro-5-[1-[2-(3-methylaminophenyl)ethyl]-2-pyrrolidinylmethyl]dibenzo[b,e][1,4]oxazepine Dihydrochloride]	41	179 to 181	56	76	–	–
COc1ccc(OCCN2CCC[C@@H]2CN2c3ccccc3COc3ccccc32)cc1.Cl	–	186 to 191	–	–	–	–
CN(C)c1cccc(CCN2CCC[C@@H]2CN2c3ccccc3COc3ccccc32)c1.Cl.Cl [Example 10, (R)-5,11-Dihydro-5-[1-[2-(3-dimethylaminophenyl)ethyl]-2-pyrrolidinylmethyl]dibenzo[b,e][1,4]oxazepine Dihydrochloride]	51	125 to 128	30	87	–	–
